From US20100184722A1, “INCLUSION COMPLEXES OF ALPHA-CYCLODEXTRIN AND SILDENAFIL SALT” (Shimoda Biotech (Pty) Ltd, priority 2008, published 2010)
Structures can show the parent of a compound that is named as a salt.

How the values were obtained:
Format in all cases: physicochemical
[1] = Solubility of sildenafil base in ddH2O with cyclodextrins (24 h shaking, HPLC); conditions: ACD 0-100 mg/ml, GCD 0-200 mg/ml, HPBCD 0-200 mg/ml, BCD 0-15 mg/ml
Procedure: These samples were shaken for 24 hours at 200 rpm. Excess sildenafil citrate was present in each of the vials for the duration of the solubility study. Following the shaking, the vial contents were filtered through 0.45 μm filters to remove any excess solute. The remaining solution was assayed by HPLC for sildenafil base content. […] This is in agreement with the findings of Omani, et al. (2006).

[2] = pH dependence of sildenafil citrate solubility in phosphate-citrate buffer with or without cyclodextrin; conditions: phosphate-citrate buffer (0.1M), pH 3.0-8.0
Procedure: Phosphate-citrate buffer (0.1M) solutions are prepared with pH's of 3.0; 4.0, 5.0; 6.0; 7.0 and 8.0 in ddH2O (de-oxygenated water by purging with nitrogen gas). […] The maximal aqueous solubility for sildenafil citrate appears to occur at pH 5.

[3] = Solubility of sildenafil citrate in ddH2O with cyclodextrins (24 h shaking, HPLC); conditions: ACD 0-100 mg/ml, GCD 0-200 mg/ml, HPBCD 0-200 mg/ml, BCD 0-15 mg/ml
Procedure: Solutions were prepared by adding 50 mg of sildenafil citrate to ddH2O samples with varying quantities of the different cyclodextrins. FIG. 1B depicts solubility data of sildenafil citrate complexed with beta-cyclodextrin (BCD) at 0-15 mg/ml These samples were shaken for 24 hours at 200 rpm. Excess sildenafil citrate was present in each of the vials for the duration of the solubility study. Following the shaking, the vial contents were filtered through 0.45 μm filters to remove any excess solute. The remaining solution was assayed by HPLC for sildenafil citrate content.

aqueous solubility of sildenafil base in the presence of cyclodextrins vs no cyclodextrin [1] | pH of maximal aqueous solubility [2] | aqueous solubility of sildenafil citrate in the presence of cyclodextrins vs no cyclodextrin [3] | SMILES
improved solubility | – | – | CCCc1nn(C)c2c(=O)[nH]c(-c3cc(S(=O)(=O)N4CCN(C)CC4)ccc3OCC)nc12 [sildenafil base, 5-[2-ethoxy-5-(4-methylpiperazin-1-yl)sulfonylphenyl]-1-methyl-3-propyl-4H-pyrazolo[5,4-e]pyrimidin-7-one]
– | 5 | improved solubility | CCCc1nn(C)c2c(=O)[nH]c(-c3cc(S(=O)(=O)N4CCN(C)CC4)ccc3OCC)nc12 [sildenafil citrate, 1-[[3-(6,7-dihydro-1-methyl-7-oxo-3-propyl-1H15-pyrazolo[4,3-d]pyrimidin-5-yl)-4-ethoxyphenyl]sulfonyl]-4-methylpiperazine citrate]
